Patent publication US20130053337A1, “GUANIDINYLATED AMINOGLYCOSIDE-LIPID CONJUGATES” (UNIVERSITY OF MANITOBA, priority 2010, published 2013)

Tests used:
S. aureus ATCC 29213 = assay: MIC, broth macrodilution (CLSI); assay type: cell-based, Staphylococcus aureus; details: S. aureus ATCC29213
Experimental: (§1) All experiments were performed in duplicate.
(§2) Bacterial isolates studied included both reference strains obtained from the American Type Culture Collection (ATCC) as well as clinical strains obtained from the CAN-ICU study which was a national surveillance study assessing the prevalence of antimicrobial resistant pathogens in Canadian intensive care units (Zhanel et al., 2008). Isolates were kept frozen in skim milk at −80° C. until minimum inhibitory concentration (MIC) testing was carried out. Following two subcultures from frozen stock, the in vitro activities of peptides were determined by macrobroth dilution in accordance with the Clinical and Laboratory Standards Institute (CLSI) 2006 guidelines (Zhanel et al., 2008). Stock solutions of peptides were prepared and dilutions made as described by CLSI. Test tubes contained doubling antimicrobial dilutions of cation adjusted Mueller-Hinton broth and inoculated to achieve a final concentration of approximately 5×10^5 cfu/ml then incubated in ambient air for 24 hours prior to reading. Colony counts were performed periodically to confirm inocula. Quality control was regularly performed using ATCC QC organisms.

MRSA ATCC 33592 = assay: MIC, broth macrodilution (CLSI); assay type: cell-based, methicillin-resistant Staphylococcus aureus; details: for MIC: MRSA ATCC33592
Experimental: as §1, §2

[1] = tested on: S. epidermidis ATCC 14990; assay: MIC, broth macrodilution (CLSI); assay type: cell-based, Staphylococcus epidermidis; details: S. epidermidis ATCC14990
Experimental: as §1, §2

MRSE CAN-ICU 61589 = assay: MIC, broth macrodilution (CLSI); assay type: cell-based, methicillin-resistant Staphylococcus epidermidis
Experimental: as §1, §2

E. faecalis ATCC 29212 = assay: MIC, broth macrodilution (CLSI); assay type: cell-based, Enterococcus faecalis; details: E. faecalis ATCC29212
Experimental: as §1, §2

E. faecium ATCC 27270 = assay: MIC, broth macrodilution (CLSI); assay type: cell-based, Enterococcus faecium; details: E. facium ATCC27270
Experimental: as §1, §2

S. pneumoniae ATCC 49619 = assay: MIC, broth macrodilution (CLSI), broth with 5% laked horse blood; assay type: cell-based, Streptococcus pneumoniae; details: S. pneumoniae ATCC49619
Experimental: as §1, §2

[2] = tested on: E. coli (amikacin MIC 32 mg/L) CAN-ICU 63074; assay: MIC, broth macrodilution (CLSI); assay type: cell-based; details: E. coli CAN-ICU 63074
Experimental: as §1, §2

[3] = tested on: E. coli (gentamicin-resistant) CAN-ICU 61714; assay: MIC, broth macrodilution (CLSI); assay type: cell-based; details: E. coli CAN-ICU 61714
Experimental: as §1, §2

E. coli ATCC 25922 = assay: MIC, broth macrodilution (CLSI); assay type: cell-based; details: E. coli ATCC25922
Experimental: as §1, §2

[4] = tested on: P. aeruginosa (gentamicin-resistant) CAN-ICU 62308; assay: MIC, broth macrodilution (CLSI); assay type: cell-based; details: P. aeruginosa CAN-ICU 62308
Experimental: as §1, §2

P. aeruginosa ATCC 27853 = assay: MIC, broth macrodilution (CLSI); assay type: cell-based; details: P. aeruginosa ATCC27853
Experimental: as §1, §2

[5] = tested on: sheep red blood cell (erythrocytes); assay: Hemolytic assay (in vitro toxicity); details: 100 mg/L; sheep erythrocytes; percent hemolysis
Experimental: Antibacterial activity against Gram-positive and Gram-negative microorganisms was tested via broth macrodilution tests using CLSI methodology (Zhanel et al., 2008). Stock solutions of cationic lipids in water were brought to a concentration of 512 mg/L. Organisms were subcultured and isolated on blood agar, suspended in 3 mL of Mueller-Hinton broth at the turbidity of a […], and diluted to approximately 10^5 cfu/mL before introduction into tubes containing serially diluted lipopeptide antibiotic in Mueller-Hinton broth. Activity testing against S. pneumoniae used broth supplemented with laked horse blood to give 5% horse blood in experimental tubes. Turbidity of lipopeptide solution in broth required creation of control tubes lacking organisms serving as turbidity controls. All tubes were incubated overnight for 16-20 h at 37° C. […] All experiments were performed in duplicate. In-vitro toxicity was determined using a sheep red blood cell hemolytic assay as previously described (Dathe et al., 1996).
In vitro toxicity was determined using a sheep red blood cell (erythrocytes) hemolytic assay (Dathe et al., 1996). […] Erythrocytes were washed and resuspended in Tris buffered saline. The cell suspension was combined with varying concentrations (low to very high) of test and control antimicrobials (e.g., aminoglycosides and APTCs). The samples were centrifuged and the absorbance of the supernatants measured at 540 nm. Tris buffered saline and Triton X were used as negative and positive controls, respectively. The toxicity was assessed by percent hemolysis.

| SMILES | MIC (S. aureus ATCC 29213) [µg/mL] | MIC (MRSA ATCC 33592) [µg/mL] | fold lower MIC (MRSA) compared to analogs 6 and 7 (MRSA ATCC 33592; MRSA, guanidinylated vs polyamine analog) [fold] | MIC [1] [µg/mL] | MIC (MRSE CAN-ICU 61589) [µg/mL] | MIC (E. faecalis ATCC 29212) [µg/mL] | MIC (E. faecium ATCC 27270) [µg/mL] | MIC (S. pneumoniae ATCC 49619) [µg/mL] | MIC [2] [µg/mL] | MIC [3] [µg/mL] | MIC (E. coli ATCC 25922) [µg/mL] | MIC [4] [µg/mL] | MIC (P. aeruginosa ATCC 27853) [µg/mL] | hemolytic activity at 100 mg/L [5] [%] |
| --- | --- | --- | --- | --- | --- | --- | --- | --- | --- | --- | --- | --- | --- | --- |
| CC(CCC(=O)NCC1OC(OC2C(O)C(NC(=N)N)CC(NC(=N)N)C2OC2OC(CNC(=N)N)C(O)C(O)C2NC(=N)N)C(O)C1OC1OC(CNC(=N)N)C(O)C(O)C1NC(=N)N)C1CCC2C3C(O)CC4CC(O)CCC4(C)C3CC(O)C12C.O=C(O)C(F)(F)F.O=C(O)C(F)(F)F.O=C(O)C(F)(F)F.O=C(O)C(F)(F)F.O=C(O)C(F)(F)F.O=C(O)C(F)(F)F (centres unmarked) [Compound 14, 1,3,2′,6′,2′″,6′″-Hexaammonium-guanidinyl-5″-deoxy-5″-N-(cholanoyl)-neomycin hexakis(trifluoroacetate)] | 16 | 16 | 8 | 4 | 8 | 32 | 16 | 64 | 32 | 64 | 64 | 32 | 128 | 2 |
| CCCCCCCCCCCCCCCCCCCC(=O)NCC1OC(OC2C(O)C(NC(=N)N)CC(NC(=N)N)C2OC2OC(CNC(=N)N)C(O)C(O)C2NC(=N)N)C(O)C1OC1OC(CNC(=N)N)C(O)C(O)C1NC(=N)N.O=C(O)C(F)(F)F.O=C(O)C(F)(F)F.O=C(O)C(F)(F)F.O=C(O)C(F)(F)F.O=C(O)C(F)(F)F.O=C(O)C(F)(F)F (centres unmarked) [Compound 11] | 32 | 32 |  | 4 | 4 | 32 | 2 | 64 | 128 | 128 | 64 | 64 | 128 | 82 |
| CCCCC/C=C\C/C=C\CCCCCCCC(=O)NCC1OC(OC2C(O)C(NC(=N)N)CC(NC(=N)N)C2OC2OC(CNC(=N)N)C(O)C(O)C2NC(=N)N)C(O)C1OC1OC(CNC(=N)N)C(O)C(O)C1NC(=N)N.O=C(O)C(F)(F)F.O=C(O)C(F)(F)F.O=C(O)C(F)(F)F.O=C(O)C(F)(F)F.O=C(O)C(F)(F)F.O=C(O)C(F)(F)F (centres unmarked) [Compound 12, 1,3,2′,6′,2′″,6′″-Hexaammonium-guanidinyl-5″-deoxy-5″-N-(9Z,12Z,octadeca-di-ene-oyl)-neomycin hexakis(trifluoroacetate)] | 8 | 16 |  | 4 | 8 | 64 | 64 | 128 | 64 | 128 | 64 | 64 | 128 | 1 |
| CCCCCCCCCCCCCCCC(=O)NCC1OC(OC2C(NC(=N)N)CC(NC(=N)N)C(OC3OC(CNC(=N)N)C(O)C(O)C3O)C2O)C(O)C(NC(=N)N)C1O.O=C(O)C(F)(F)F.O=C(O)C(F)(F)F.O=C(O)C(F)(F)F.O=C(O)C(F)(F)F (centres unmarked) [Compound 16, 1,3,6′,3″-Tetraammonium-guanidinyl-6″-deoxy-6″-N-(hexadecanoyl)-kanamycin-tetrakis-(trifluoroacetate)] | 16 | 8 |  | 8 | 8 | 16 | 16 | 128 | 64 | 128 | 64 | 64 | 256 | 6.7 |
